Experiments:
Format in all cases: cell-based
human TLR7 = target: T1, human TLR7 (Homo sapiens, UniProt Q9NYK1); assay: TLR7 cellular NFκB-luc reporter assay in transiently transfected HEK293 cells; settings: lowest effective concentration, 6 hours incubation
T1 construct: expressed in transfected cells; host or cells: HEK293
T1 sequence (Q9NYK1 27-1049): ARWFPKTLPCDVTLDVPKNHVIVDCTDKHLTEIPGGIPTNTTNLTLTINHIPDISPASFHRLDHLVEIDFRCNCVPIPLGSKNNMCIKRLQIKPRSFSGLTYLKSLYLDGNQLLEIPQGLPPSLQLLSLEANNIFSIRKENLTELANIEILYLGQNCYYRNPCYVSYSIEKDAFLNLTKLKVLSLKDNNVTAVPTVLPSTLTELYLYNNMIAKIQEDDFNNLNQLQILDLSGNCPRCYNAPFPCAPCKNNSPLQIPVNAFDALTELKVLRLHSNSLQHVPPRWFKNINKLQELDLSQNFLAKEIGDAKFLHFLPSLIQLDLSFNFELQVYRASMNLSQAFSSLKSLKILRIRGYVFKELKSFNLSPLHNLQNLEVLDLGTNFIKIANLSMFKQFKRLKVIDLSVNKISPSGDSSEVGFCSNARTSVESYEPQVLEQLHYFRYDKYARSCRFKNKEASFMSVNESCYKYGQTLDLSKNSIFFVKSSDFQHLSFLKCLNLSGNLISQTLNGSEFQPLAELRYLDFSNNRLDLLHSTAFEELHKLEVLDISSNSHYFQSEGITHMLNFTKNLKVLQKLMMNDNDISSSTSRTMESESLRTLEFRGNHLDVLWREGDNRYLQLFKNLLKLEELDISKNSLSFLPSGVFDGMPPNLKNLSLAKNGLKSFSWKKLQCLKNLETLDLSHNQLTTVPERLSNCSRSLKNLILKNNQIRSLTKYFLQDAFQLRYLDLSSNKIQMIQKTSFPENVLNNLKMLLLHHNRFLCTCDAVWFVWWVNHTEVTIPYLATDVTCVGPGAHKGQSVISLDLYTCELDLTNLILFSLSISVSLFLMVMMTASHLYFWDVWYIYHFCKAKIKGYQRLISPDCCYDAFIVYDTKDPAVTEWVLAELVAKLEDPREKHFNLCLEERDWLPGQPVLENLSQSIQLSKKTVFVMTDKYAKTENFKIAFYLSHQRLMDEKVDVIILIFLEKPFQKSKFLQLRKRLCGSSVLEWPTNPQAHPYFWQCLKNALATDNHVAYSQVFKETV
Protocol: (§1) The ability of compounds to activate human TLR7 and/or TLR8 was assessed in a cellular reporter assay using HEK293 cells transiently transfected with a TLR7 or TLR8 expression vector and NFκB-luc reporter construct.
(§2) Briefly, HEK293 cells were grown in culture medium (DMEM supplemented with 10% FCS and 2 mM Glutamine). For transfection of cells in 15 cm dishes, cells were detached with Trypsin-EDTA, transfected with a mix of CMV-TLR7 or TLR8 plasmid (1700 ng), NFκB-luc plasmid (850 ng) and a transfection reagent and incubated for 48 h at 37° C. in a humidified 5% CO2 atmosphere. Transfected cells were then washed in PBS, detached with Trypsin-EDTA and resuspended in medium to a density of 1.25×10^5 cells/mL. Forty microliters of cells were then dispensed into each well in 384-well plates, where 200 nL of compound in 100% DMSO was already present. Following 6 hours incubation at 37° C., 5% CO2, the luciferase activity was determined by adding 15 μL of Steady Lite Plus substrate (Perkin Elmer) to each well and readout performed on a ViewLux ultraHTS microplate imager (Perkin Elmer). Dose response curves were generated from measurements performed in quadruplicates.

human TLR8 = target: T2, human TLR8 (Homo sapiens, UniProt Q9NR97); assay: TLR8 cellular NFκB-luc reporter assay in transiently transfected HEK293 cells; settings: lowest effective concentration, 6 hours incubation
T2 construct: expressed in transfected cells; host or cells: HEK293
T2 sequence (Q9NR97 27-1041): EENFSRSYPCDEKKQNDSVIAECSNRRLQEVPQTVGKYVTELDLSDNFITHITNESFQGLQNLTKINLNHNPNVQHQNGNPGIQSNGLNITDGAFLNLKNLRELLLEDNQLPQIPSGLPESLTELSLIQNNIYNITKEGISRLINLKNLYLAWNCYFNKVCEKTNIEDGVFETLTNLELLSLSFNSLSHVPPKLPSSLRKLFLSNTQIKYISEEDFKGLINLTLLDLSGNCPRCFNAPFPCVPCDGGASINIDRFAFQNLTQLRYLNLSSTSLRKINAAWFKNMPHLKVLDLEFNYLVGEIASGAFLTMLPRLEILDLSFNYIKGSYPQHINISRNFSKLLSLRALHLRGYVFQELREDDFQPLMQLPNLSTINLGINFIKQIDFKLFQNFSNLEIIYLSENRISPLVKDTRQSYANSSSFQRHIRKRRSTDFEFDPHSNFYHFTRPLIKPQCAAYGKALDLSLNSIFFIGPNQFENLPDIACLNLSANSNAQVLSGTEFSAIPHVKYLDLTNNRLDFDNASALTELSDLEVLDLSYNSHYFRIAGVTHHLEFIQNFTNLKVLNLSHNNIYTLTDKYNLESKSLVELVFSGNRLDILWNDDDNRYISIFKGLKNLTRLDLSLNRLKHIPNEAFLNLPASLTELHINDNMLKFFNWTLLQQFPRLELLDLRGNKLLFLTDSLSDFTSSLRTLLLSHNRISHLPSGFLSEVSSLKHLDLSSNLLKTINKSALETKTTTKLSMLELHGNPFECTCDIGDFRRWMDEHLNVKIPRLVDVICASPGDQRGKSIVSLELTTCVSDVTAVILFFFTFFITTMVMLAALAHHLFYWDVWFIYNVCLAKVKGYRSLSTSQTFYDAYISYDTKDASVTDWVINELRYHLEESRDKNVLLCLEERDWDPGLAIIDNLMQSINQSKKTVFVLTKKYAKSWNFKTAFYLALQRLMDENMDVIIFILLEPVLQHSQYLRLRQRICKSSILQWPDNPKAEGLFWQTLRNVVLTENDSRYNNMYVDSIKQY
Protocol: as §1
as §2, with “quadruplicates. Lowest effective concentrations (LEC) values, defined as the concentration that induces an effect which is at least two fold above the standard deviation of the assay, were determined for each compound.” for “quadruplicates.”

[1] = tested on: interferon-stimulated responsive elements (ISRE); assay: Activation of ISRE promoter elements in HEK-ISREluc cells by conditioned media from compound-treated PBMC; settings: compound concentration applied to PBMCs overnight, supernatant on HEK-ISREluc cells 24 hours, read-out: HEK-ISRE luc (LEC)
Protocol: The potential of compounds to induce IFN-I was also evaluated by measuring the activation of interferon-stimulated responsive elements (ISRE) by conditioned media from PBMC. The ISRE element of sequence […] (SEQ ID NO: 1) is highly responsive to the STAT1-STAT2-IRF9 transcription factor, activated upon binding of IFN-I to their receptor IFNAR (Clontech, PT3372-5W). The plasmid pISRE-Luc from Clontech (ref. 631913) contains 5 copies of this ISRE element, followed by the firefly luciferase ORF. A HEK293 cell line stably transfected with pISRE-Luc (HEK-ISREluc) was established to profile the conditioned PBMC cell culture media.
Briefly, PBMCs were prepared from buffy coats of at least two donors using a standard Ficoll centrifugation protocol. Isolated PBMCs were resuspended in RPMI medium supplemented with 10% human AB serum and 2×10^5 cells/well were dispensed into 384-well plates containing compounds (70 μL total volume). After overnight incubation, 10 μL of supernatant was transferred to 384-well plates containing 5×10^3 HEK-ISREluc cells/well in 30 μL (plated the day before). Following 24 hours of incubation, activation of the ISRE elements was measured by assaying luciferase activity using 40 μL/well Steady Lite Plus substrate (Perkin Elmer) and measured with ViewLux ultraHTS microplate imager (Perkin Elmer). The stimulating activity of each compound on the HEK-ISREluc cells was reported as LEC value, defined as the compound concentration applied to the PBMCs resulting in a luciferase activity at least two fold above the standard deviation of the assay. The LEC in turn indicates the degree of ISRE activation on transfer of a defined amount of PBMC culture medium. Recombinant interferon α-2a (Roferon-A) was used as a standard control compound.

Compound | Human TLR 7 (LEC) (human TLR7) | Human TLR 8 (LEC) (human TLR8) | minimal effective concentration [1]
CCCCOc1nc(N)nc2ccn(Cc3ccccc3)c12 [Compound 1] | 0.6 µM | >25 µM | 0.4 µM
COCCn1ccc2nc(N)nc(OCc3cc(C)on3)c21 [Compound 2] | 2.7 µM | >25 µM | 0.5 µM
COc1ccccc1Cn1ccc2nc(N)nc(OCc3cc(C)on3)c21 [Compound 3] | 0.1 µM | >25 µM | 0.03 µM
CCCCOc1nc(N)nc2ccn(Cc3ccccn3)c12 [Compound 4] | 1.4 µM | >25 µM | 0.6 µM
Cc1cc(COc2nc(N)nc3ccn(Cc4ccccn4)c23)no1 [Compound 5] | – | >25 µM | –
Cc1nc(COc2nc(N)nc3ccn(Cc4ccccn4)c23)no1 [Compound 6] | – | >25 µM | –
COc1ccc(Cn2ccc3nc(N)nc(OCc4cc(C)on4)c32)nc1OC [Compound 7] | 0.08 µM | >25 µM | 0.03 µM
COc1cccnc1Cn1ccc2nc(N)nc(OCc3cc(C)on3)c21 [Compound 8] | 0.03 µM | >25 µM | 0.01 µM
COc1cccnc1Cn1ccc2nc(N)nc(OCc3ncc(C)o3)c21 [Compound 9] | – | >25 µM | –
Cc1cnc(COc2nc(N)nc3ccn(Cc4ccccn4)c23)s1 [Compound 10] | – | >25 µM | –
Cc1cnc(COc2nc(N)nc3ccn(Cc4ccccn4)c23)o1 [Compound 11] | – | >25 µM | –

— patent US10385054B2, “Pyrrolo[3,2-d]pyrimidine derivatives for the treatment of viral infections and other diseases” (Janssen Sciences Ireland Unlimited Company, priority 2013, dated 2019)
